Publication PMC10222279, “Detection of Acetaminophen in Groundwater by Laccase-Based Amperometric Biosensors Using MoS2 Modified Carbon Paper Electrodes” (Sensors (Basel, Switzerland), 2023)

Tested on: T1, TvL
T1 construct: gene LCC2
Conditions: read-out: KMapp / Free; free enzyme; assay as for activity: 50 mM citric/phosphate buffer pH 4, 420 nm; unit not in table grid, µM
Text: ABTS oxidation kinetics, non-linear Michaelis-Menten fit on TvL

With `CCn1c(=NN=c2sc3cc(S(=O)(=O)O)ccc3n2CC)sc2cc(S(=O)(=O)O)ccc21` [ABTS, 2,2′-azino-bis(3-ethylbenzthiazoline-6-sulphonic acid)] the Km was 42.1 ± 3.14 µM.
